The text below walks through data of patent US12509462B2, “3-(phenylsulfonyl)-[1,2,3]triazolo[1,5A]quinazolin-5(4H)-one derivatives” (BIOVERSYS AG, priority 2018, dated 2025).

Molecules are shown by their SMILES. Values after ≈ are worked out from the molar mass of the structure shown.

Usually IC95 stands for the point of the concentration-response curve where the effect stands at 95%. By IC50 is commonly meant the concentration needed to halve the response being measured. As a reminder, the MIC is the lowest concentration that inhibits growth of the organism.

The subject of one series is HepG2. Particulars: human, 48 h.
A further series deals with psmα. It counts as cell-based, Staphylococcus aureus.
For series [1], the system named is Staphylococcus aureus MRSA strain (USA300 isolate). The series is described as follows: Hemolysis Assay II (exotoxin-mediated lysis of rabbit red blood cells by culture filtrate). It counts as cell-based. Particulars: Erythrocyte; for minimal effective concentration / IC95: 18 h; for minimal effective concentration: absorbance <2× the average of the complete inhibition control, read-out: Hemolysis assay II MEC (minimal effective concentration); for IC95: read-out: Hemolysis assay II IC95; for IC50: 18 h culture in CA-MHB, rabbit red blood cells.

The subject of another series is MRSA. In words: MIC by broth microdilution in CA-MHB (CLSI). Particulars: Staphylococcus aureus, 18 h, read-out: MIC on MRSA. A general note: In broth dilution the organism is exposed to a series of concentrations in liquid medium.
The test system of another series is MRSA (USA300 isolate). In words: Hemolysis Assay I (exotoxin-mediated lysis of rabbit red blood cells by culture supernatant). Particulars: 30/10/3.3/1.1/0.37 μM compound, values at OD600 of 0.75. It counts as cell-based, Staphylococcus aureus.
A further series deals with RNAIII. It counts as cell-based, Staphylococcus aureus. Particulars: 10 μM compound, two hours, MRSA (USA300 isolate), normalized to rpoD.
[2] abbreviates: Staphylococcus aureus, Erythrocyte.

As for `Cc1ccc(S(=O)(=O)c2nnn3c2[nH]c(=O)c2ccc(Cl)cc23)c(C)c1` [Compound 3, 8-chloro-3-(2,4-dimethylphenyl)sulfonyl-4H-triazolo[1,5-a]quinazolin-5-one], the “LD50 HepG2” value in the series with HepG2 is “>=100 μM”. In the series with psmα, the “Downregulation of psmα expression at 10 μM” value is given as “++ (++ downregulation>100-fold (2 log10))”. For the same compound, in series [1], the minimal effective concentration came to 4 µg/mL, the IC95 was 3.45 µg/mL (≈ 8.87 µM) and it took 1.65 µg/mL (≈ 4.24 µM) to reach half-maximal inhibition (IC50). Moreover, in the series on MRSA, the minimum inhibitory concentration (MIC) is at least 100 µM. Further, half-maximal inhibition with MRSA (USA300 isolate) (setting [2]) (IC50) was put at 5000 nM. Moreover, the “Downregulation of RNAIII expression at 10 μM” value with RNAIII was “++ (++ downregulation>100-fold (2 log10))”.

Regarding `COc1ccc2c(=O)[nH]c3c(S(=O)(=O)c4ccc(C)cc4C)nnn3c2c1` [Compound 5, 3-(2,4-dimethylphenyl)sulfonyl-8-methoxy-4H-triazolo[1,5-a]quinazolin-5-one], the “LD50 HepG2” value in the series on HepG2 is on record as “>=100 μM”. Moreover, the “Downregulation of psmα expression at 10 μM” value in the series with psmα was “++ (++ downregulation>100-fold (2 log10))”. In series [1], the minimal effective concentration turned out to be 6 µg/mL, the IC95 turned out to be 11.7 µg/mL (≈ 30.3 µM) and the IC50 came out at 2.05 µg/mL (≈ 5.33 µM). The MIC in the series with MRSA was at least 100 µM. The compound also yielded an IC50 in the series on MRSA (USA300 isolate) (setting [2]) of 6000 nM. In addition, the “Downregulation of RNAIII expression at 10 μM” value in the series with RNAIII is “+ (+ downregulation>10-fold (1 log10))”.

On to `COc1ccc2c(=O)[nH]c3c(S(=O)(=O)c4ccc(C)cc4Cl)nnn3c2c1` [Compound 12, 3-(2-chloro-4-methyl-phenyl)sulfonyl-8-methoxy-4H-triazolo[1,5-a]quinazolin-5-one], for which, in the series on HepG2, the “LD50 HepG2” value is on record as “>=100 μM”. Moreover, the “Downregulation of psmα expression at 10 μM” value with psmα is “++ (++ downregulation>100-fold (2 log10))”. Besides, in series [1], the minimal effective concentration came out at 3 µg/mL, the IC95 was determined as 2.75 µg/mL (≈ 6.79 µM) and the 50% inhibitory concentration (IC50) was determined as 0.85 µg/mL (≈ 2.1 µM). For the same compound, in the series with MRSA, the MIC is at least 100 µM. Besides, the IC50 in the series on MRSA (USA300 isolate) amounted to 1300 nM. In addition, the IC50 in the series with MRSA (USA300 isolate) (setting [2]) was around 1000 nM. Besides, the “Downregulation of RNAIII expression at 10 μM” value in the series on RNAIII is recorded as “++ (++ downregulation>100-fold (2 log10))”.

`COc1ccc2c(=O)[nH]c3c(S(=O)(=O)c4ccc(C)cc4Br)nnn3c2c1` [Compound 18, 3-(2-bromo-4-methyl-phenyl)sulfonyl-8-methoxy-4H-triazolo[1,5-a]quinazolin-5-one]: the “LD50 HepG2” value in the series on HepG2 is listed as “>=100 μM”. Besides, in the series on psmα, the “Downregulation of psmα expression at 10 μM” value is on record as “++ (++ downregulation>100-fold (2 log10))”. In series [1], the minimal effective concentration was 3 µg/mL, the 95% effect concentration (IC95) was determined as 2.75 µg/mL (≈ 6.12 µM) and the IC50 turned out to be 0.95 µg/mL (≈ 2.11 µM). Further, the MIC in the series with MRSA is at least 100 µM. The compound further returned an IC50 in the series with MRSA (USA300 isolate) of 800 nM. The compound also gave an IC50 in the series with MRSA (USA300 isolate) (setting [2]) of around 1000 nM. Further, in the series on RNAIII, the “Downregulation of RNAIII expression at 10 μM” value was “++ (++ downregulation>100-fold (2 log10))”.

For the compound `COc1ccc2c(=O)[nH]c3c(S(=O)(=O)c4ccc(C)cc4C(F)(F)F)nnn3c2c1` [Compound 26, 8-methoxy-3-[4-methyl-2-(trifluoromethyl)phenyl]sulfonyl-4H-triazolo[1,5-a]quinazolin-5-one], the “LD50 HepG2” value with HepG2 was “>=100 μM”. Also, in the series with psmα, the “Downregulation of psmα expression at 10 μM” value is reported as “++ (++ downregulation>100-fold (2 log10))”. In series [1], the minimal effective concentration is 6 µg/mL, the IC95 was 4.15 µg/mL (≈ 9.47 µM) and the IC50 amounted to 1 µg/mL (≈ 2.28 µM). Besides, in the series on MRSA, the MIC was at least 100 µM. The compound further had an IC50 with MRSA (USA300 isolate) of 700 nM. Further, in the series with MRSA (USA300 isolate) (setting [2]), the IC50 was around 1000 nM. Further, in the series on RNAIII, the “Downregulation of RNAIII expression at 10 μM” value is given as “++ (++ downregulation>100-fold (2 log10))”.

On to `Cc1ccc(S(=O)(=O)c2nnn3c2[nH]c(=O)c2ccccc23)c(Cl)c1` [Compound 35, 3-(2-chloro-4-methyl-phenyl)sulfonyl-4H-triazolo[1,5-a]quinazolin-5-one], for which, in the series with HepG2, the “LD50 HepG2” value was “>=100 μM”. In series [1], the minimal effective concentration is 4 µg/mL, the IC95 is 3.7 µg/mL (≈ 9.87 µM) and 1.25 µg/mL (≈ 3.34 µM) corresponded to half-maximal inhibition (IC50). Also, the MIC in the series on MRSA was at least 100 µM. Further, the IC50 in the series on MRSA (USA300 isolate) (setting [2]) turned out to be 1500 nM.

In the case of `Cc1ccc(S(=O)(=O)c2nnn3c2[nH]c(=O)c2ccc(O)cc23)c(C)c1` [Compound 36, 3-(2,4-dimethylphenyl)sulfonyl-8-hydroxy-4H-triazolo[1,5-a]quinazolin-5-one], the “LD50 HepG2” value with HepG2 is recorded as “>=100 μM”. For the same compound, in series [1], the minimal effective concentration was determined as 4 µg/mL, the IC95 is 4.5 µg/mL (≈ 12.1 µM) and inhibition was half-maximal at 1.7 µg/mL (≈ 4.59 µM) (IC50). For the same compound, the MIC in the series with MRSA is at least 100 µM. Further, the midpoint of inhibition in the series with MRSA (USA300 isolate) (setting [2]), the IC50, lay at 2800 nM.

On to `Cc1ccc(S(=O)(=O)c2nnn3c2[nH]c(=O)c2ccccc23)c(Br)c1` [Compound 37, 3-(2-Bromo-4-methyl-phenyl)sulfonyl-4H-triazolo[1,5-a]quinazolin-5-one], for which, in the series on HepG2, the “LD50 HepG2” value is reported as “>=100 μM”. Moreover, in series [1], the minimal effective concentration was 4 µg/mL, the IC95 came to 3.65 µg/mL (≈ 8.71 µM) and the IC50 stood at 1.25 µg/mL (≈ 2.98 µM). Further, the MIC with MRSA is at least 100 µM. This compound showed an IC50 with MRSA (USA300 isolate) (setting [2]) of 1500 nM.

Regarding `COc1cccc2c1c(=O)[nH]c1c(S(=O)(=O)c3ccc(C)cc3C)nnn12` [Compound 39, 3-(2,4-dimethylphenyl)sulfonyl-6-methoxy-4H-triazolo[1,5-a]quinazolin-5-one], the “LD50 HepG2” value in the series with HepG2 was “>=100 μM”. In series [1], the minimal effective concentration turned out to be 4 µg/mL, the IC95 turned out to be 3.25 µg/mL (≈ 8.45 µM) and the IC50 is 0.8 µg/mL (≈ 2.08 µM). For the same compound, the MIC in the series with MRSA is at least 100 µM. This compound also had an IC50 in the series on MRSA (USA300 isolate) (setting [2]) of 800 nM.

Consider `Cc1ccc(S(=O)(=O)c2nnn3c2[nH]c(=O)c2ccc(OCCO)cc23)c(C)c1` [Compound 53, 3-(2,4-dimethylphenyl)sulfonyl-8-(2-hydroxyethoxy)-4H-triazolo[1,5-a]quinazolin-5-one], for which the “LD50 HepG2” value in the series on HepG2 was “>=100 μM”. Besides, in series [1], the minimal effective concentration stood at 2 µg/mL, the IC95 came to 2.2 µg/mL (≈ 5.31 µM) and the IC50 was 0.7 µg/mL (≈ 1.69 µM). Besides, the MIC in the series with MRSA is at least 100 µM.

For the compound `COC(=O)CCCOc1ccc2c(=O)[nH]c3c(S(=O)(=O)c4ccc(C)cc4C)nnn3c2c1` [Compound 55, methyl 4-[[3-(2,4-dimethylphenyl)sulfonyl-5-oxo-4H-triazolo[1,5-a]quinazolin-8-yl]oxy]butanoate], the “LD50 HepG2” value in the series with HepG2 is “>=100 μM”. Also, in series [1], the minimal effective concentration was found to be 3 µg/mL; the IC95 is 2.45 µg/mL (≈ 5.21 µM); the midpoint of inhibition, the IC50, lay at 1 µg/mL (≈ 2.13 µM). The MIC in the series on MRSA is at least 100 µM.

On to `COCCOc1cc2c(cc1O)c(=O)[nH]c1c(S(=O)(=O)c3ccc(C)cc3C)nnn12` [Compound 58, 3-(2,4-dimethylphenyl)sulfonyl-7-hydroxy-8-(2-methoxyethoxy)-4H-triazolo[1,5-a]quinazolin-5-one], for which, in the series with HepG2, the “LD50 HepG2” value is listed as “>=100 μM”. In series [1], the minimal effective concentration is 4 µg/mL, the IC95 was determined as 4.1 µg/mL (≈ 9.22 µM) and it took 0.9 µg/mL (≈ 2.02 µM) to reach half-maximal inhibition (IC50). In addition, in the series with MRSA, the MIC was at least 100 µM.

With `COCCOCCOCCOc1ccc2c(=O)[nH]c3c(S(=O)(=O)c4ccc(C)cc4C)nnn3c2c1` [Compound 59, 3-(2,4-dimethylphenyl)sulfonyl-8-[2-[2-(2-methoxyethoxy)ethoxy]ethoxy]-4H-triazolo[1,5-a]quinazolin-5-one], in the series on HepG2, the “LD50 HepG2” value is recorded as “>=100 μM”. Moreover, in series [1], the minimal effective concentration was 8 µg/mL, the 95% effect concentration (IC95) turned out to be 6.5 µg/mL (≈ 12.6 µM) and it took 2.6 µg/mL (≈ 5.03 µM) to reach half-maximal inhibition (IC50). In the series with MRSA, the MIC is at least 100 µM.

Consider `Cc1ccc(S(=O)(=O)c2nnn3c2[nH]c(=O)c2ccc(OCC4COC(C)(C)O4)cc23)c(C)c1` (centres unmarked) [Compound 60, 8-[(2,2-dimethyl-1,3-dioxolan-4-yl)methoxy]-3-(2,4-dimethylphenyl)sulfonyl-4H-triazolo[1,5-a]quinazolin-5-one], for which the “LD50 HepG2” value in the series on HepG2 is given as “>=100 μM”. Further, in series [1], the minimal effective concentration is 3 µg/mL, the IC95 turned out to be 3.05 µg/mL (≈ 6.29 µM) and it took 1 µg/mL (≈ 2.06 µM) to reach half-maximal inhibition (IC50). Besides, the MIC with MRSA is at least 100 µM.
